Results: PubChem BioAssay (NCI)
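48-hour exposure; five concentrations; linearly interpolated endpoints. TGI: total growth inhibition.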

Legend:
Assay in all cases: DTP human tumour cell line panel, 48 h
786-0 renal = system: 786-0 renal
A549 NSCLC = system: A549 NSCLC
ACHN renal = system: ACHN renal
CAKI-1 renal = system: CAKI-1 renal
COLO 205 colon = system: COLO 205 colon
DLD-1 colon = system: DLD-1 colon
DMS 114 small cell lung = system: DMS 114 small cell lung
DMS 273 small cell lung = system: DMS 273 small cell lung
HCC-2998 colon = system: HCC-2998 colon
HCT-116 colon = system: HCT-116 colon
HCT-15 colon = system: HCT-15 colon
HL-60(TB) leukemia = system: HL-60(TB) leukemia
HOP-92 NSCLC = system: HOP-92 NSCLC
HT29 colon = system: HT29 colon
IGROV1 ovarian = system: IGROV1 ovarian
K-562 leukemia = system: K-562 leukemia
KM12 colon = system: KM12 colon
KM20L2 colon = system: KM20L2 colon
LOX IMVI melanoma = system: LOX IMVI melanoma
LXFL 529 NSCLC = system: LXFL 529 NSCLC
M14 melanoma = system: M14 melanoma
M19-MEL melanoma = system: M19-MEL melanoma
MALME-3M melanoma = system: MALME-3M melanoma
MOLT-4 leukemia = system: MOLT-4 leukemia
NCI-H226 lung = system: NCI-H226 lung
NCI-H23 lung = system: NCI-H23 lung
NCI-H460 lung = system: NCI-H460 lung
NCI-H522 lung = system: NCI-H522 lung
OVCAR-3 ovarian = system: OVCAR-3 ovarian
OVCAR-4 ovarian = system: OVCAR-4 ovarian
OVCAR-5 ovarian = system: OVCAR-5 ovarian
OVCAR-8 ovarian = system: OVCAR-8 ovarian
RPMI-8226 leukemia = system: RPMI-8226 leukemia
RXF 393 renal = system: RXF 393 renal
RXF-631 renal = system: RXF-631 renal
SF-268 CNS = system: SF-268 CNS
SF-295 CNS = system: SF-295 CNS
SF-539 CNS = system: SF-539 CNS
SK-MEL-28 melanoma = system: SK-MEL-28 melanoma
SK-MEL-5 melanoma = system: SK-MEL-5 melanoma
SK-OV-3 ovarian = system: SK-OV-3 ovarian
SN12C renal = system: SN12C renal
SNB-19 CNS = system: SNB-19 CNS
SNB-75 CNS = system: SNB-75 CNS
SNB-78 CNS = system: SNB-78 CNS
SR leukemia = system: SR leukemia
SW-620 colon = system: SW-620 colon
TK-10 renal = system: TK-10 renal
U251 CNS = system: U251 CNS
UACC-257 melanoma = system: UACC-257 melanoma
UACC-62 melanoma = system: UACC-62 melanoma
UO-31 renal = system: UO-31 renal
XF 498 CNS = system: XF 498 CNS
A498 renal = system: A498 renal
EKVX NSCLC = system: EKVX NSCLC
HOP-18 NSCLC = system: HOP-18 NSCLC
HOP-62 NSCLC = system: HOP-62 NSCLC

Q: For `CC1(C)C(=NN=C(N)N)C(C)(C)C1=NN=C(N)N`, which TGI (786-0 renal) is on record?
A: Its TGI is greater than 100 µM.

Q: What about the TGI (A549 NSCLC) of the same molecule?
A: The TGI was greater than 100 µM.

Q: And the TGI (ACHN renal)?
A: Its TGI is greater than 100 µM.

Q: What about the TGI (CAKI-1 renal) of the same molecule?
A: Its TGI is greater than 100 µM.

Q: What about the TGI (COLO 205 colon) of the same molecule?
A: Its TGI is greater than 100 µM.

Q: What about the TGI (DLD-1 colon) of the same molecule?
A: Its TGI is greater than 100 µM.

Q: And the TGI (DMS 114 small cell lung)?
A: Its TGI is greater than 100 µM.

Q: And the TGI (DMS 273 small cell lung)?
A: Its TGI is greater than 100 µM.

Q: And the TGI (HCC-2998 colon)?
A: Its TGI is greater than 100 µM.

Q: What about the TGI (HCT-116 colon) of the same molecule?
A: The TGI was greater than 100 µM.

Q: And the TGI (HCT-15 colon)?
A: Its TGI is greater than 100 µM.

Q: What about the TGI (HL-60(TB) leukemia) of the same molecule?
A: The TGI was greater than 100 µM.

Q: What about the TGI (HOP-92 NSCLC) of the same molecule?
A: The TGI was greater than 100 µM.

Q: What about the TGI (HT29 colon) of the same molecule?
A: The TGI was greater than 100 µM.

Q: What about the TGI (IGROV1 ovarian) of the same molecule?
A: The TGI was greater than 100 µM.

Q: What about the TGI (K-562 leukemia) of the same molecule?
A: Its TGI is greater than 100 µM.

Q: And the TGI (KM12 colon)?
A: The TGI was greater than 100 µM.

Q: And the TGI (KM20L2 colon)?
A: The TGI was greater than 100 µM.

Q: And the TGI (LOX IMVI melanoma)?
A: Its TGI is greater than 100 µM.

Q: And the TGI (LXFL 529 NSCLC)?
A: The TGI was greater than 100 µM.

Q: And the TGI (M14 melanoma)?
A: The TGI was greater than 100 µM.

Q: And the TGI (M19-MEL melanoma)?
A: The TGI was greater than 100 µM.

Q: What about the TGI (MALME-3M melanoma) of the same molecule?
A: Its TGI is greater than 100 µM.

Q: What about the TGI (MOLT-4 leukemia) of the same molecule?
A: Its TGI is greater than 100 µM.

Q: And the TGI (NCI-H226 lung)?
A: Its TGI is greater than 100 µM.

Q: And the TGI (NCI-H23 lung)?
A: Its TGI is greater than 100 µM.

Q: What about the TGI (NCI-H460 lung) of the same molecule?
A: Its TGI is greater than 100 µM.

Q: And the TGI (NCI-H522 lung)?
A: The TGI was greater than 100 µM.

Q: What about the TGI (OVCAR-3 ovarian) of the same molecule?
A: The TGI was greater than 100 µM.

Q: What about the TGI (OVCAR-4 ovarian) of the same molecule?
A: Its TGI is greater than 100 µM.

Q: What about the TGI (OVCAR-5 ovarian) of the same molecule?
A: The TGI was greater than 100 µM.

Q: What about the TGI (OVCAR-8 ovarian) of the same molecule?
A: Its TGI is greater than 100 µM.

Q: And the TGI (RPMI-8226 leukemia)?
A: The TGI was greater than 100 µM.

Q: What about the TGI (RXF 393 renal) of the same molecule?
A: Its TGI is greater than 100 µM.

Q: What about the TGI (RXF-631 renal) of the same molecule?
A: The TGI was greater than 100 µM.

Q: And the TGI (SF-268 CNS)?
A: The TGI was greater than 100 µM.

Q: And the TGI (SF-295 CNS)?
A: Its TGI is greater than 100 µM.

Q: And the TGI (SF-539 CNS)?
A: The TGI was greater than 100 µM.

Q: What about the TGI (SK-MEL-28 melanoma) of the same molecule?
A: The TGI was greater than 100 µM.

Q: What about the TGI (SK-MEL-5 melanoma) of the same molecule?
A: Its TGI is greater than 100 µM.

Q: And the TGI (SK-OV-3 ovarian)?
A: Its TGI is greater than 100 µM.

Q: And the TGI (SN12C renal)?
A: Its TGI is greater than 100 µM.

Q: And the TGI (SNB-19 CNS)?
A: Its TGI is greater than 100 µM.

Q: What about the TGI (SNB-75 CNS) of the same molecule?
A: The TGI was greater than 100 µM.

Q: And the TGI (SNB-78 CNS)?
A: The TGI was greater than 100 µM.

Q: And the TGI (SR leukemia)?
A: Its TGI is greater than 100 µM.

Q: What about the TGI (SW-620 colon) of the same molecule?
A: The TGI was greater than 100 µM.

Q: What about the TGI (TK-10 renal) of the same molecule?
A: The TGI was greater than 100 µM.

Q: And the TGI (U251 CNS)?
A: Its TGI is greater than 100 µM.

Q: And the TGI (UACC-257 melanoma)?
A: The TGI was greater than 100 µM.

Q: And the TGI (UACC-62 melanoma)?
A: The TGI was greater than 100 µM.

Q: What about the TGI (UO-31 renal) of the same molecule?
A: The TGI was greater than 100 µM.

Q: What about the TGI (XF 498 CNS) of the same molecule?
A: The TGI was greater than 100 µM.

Q: For `CNC(=S)NC(=S)N(C)C`, which TGI (786-0 renal) is on record?
A: Its TGI is greater than 100 µM.

Q: What about the TGI (A498 renal) of the same molecule?
A: Its TGI is greater than 100 µM.

Q: What about the TGI (A549 NSCLC) of the same molecule?
A: Its TGI is greater than 100 µM.

Q: And the TGI (ACHN renal)?
A: Its TGI is greater than 100 µM.

Q: And the TGI (CAKI-1 renal)?
A: The TGI was greater than 100 µM.

Q: And the TGI (DLD-1 colon)?
A: The TGI was greater than 100 µM.

Q: What about the TGI (DMS 114 small cell lung) of the same molecule?
A: The TGI was greater than 100 µM.

Q: What about the TGI (EKVX NSCLC) of the same molecule?
A: The TGI was greater than 100 µM.

Q: And the TGI (HCC-2998 colon)?
A: Its TGI is greater than 100 µM.

Q: And the TGI (HCT-116 colon)?
A: The TGI was greater than 100 µM.

Q: And the TGI (HCT-15 colon)?
A: Its TGI is greater than 100 µM.

Q: And the TGI (HL-60(TB) leukemia)?
A: Its TGI is 20 µM.

Q: What about the TGI (HOP-18 NSCLC) of the same molecule?
A: Its TGI is greater than 100 µM.

Q: And the TGI (HOP-62 NSCLC)?
A: Its TGI is greater than 100 µM.

Q: What about the TGI (HOP-92 NSCLC) of the same molecule?
A: Its TGI is greater than 100 µM.

Q: What about the TGI (IGROV1 ovarian) of the same molecule?
A: Its TGI is greater than 100 µM.

Q: And the TGI (K-562 leukemia)?
A: The TGI was greater than 100 µM.

Q: What about the TGI (KM20L2 colon) of the same molecule?
A: Its TGI is greater than 100 µM.

Q: What about the TGI (LOX IMVI melanoma) of the same molecule?
A: The TGI was greater than 100 µM.

Q: And the TGI (LXFL 529 NSCLC)?
A: Its TGI is greater than 100 µM.

Q: And the TGI (M14 melanoma)?
A: The TGI was greater than 100 µM.

Q: And the TGI (MOLT-4 leukemia)?
A: Its TGI is greater than 100 µM.

Q: And the TGI (NCI-H226 lung)?
A: The TGI was greater than 100 µM.

Q: And the TGI (NCI-H460 lung)?
A: Its TGI is greater than 100 µM.

Q: What about the TGI (NCI-H522 lung) of the same molecule?
A: Its TGI is greater than 100 µM.

Q: What about the TGI (OVCAR-3 ovarian) of the same molecule?
A: The TGI was greater than 100 µM.

Q: What about the TGI (OVCAR-4 ovarian) of the same molecule?
A: Its TGI is greater than 100 µM.

Q: And the TGI (OVCAR-8 ovarian)?
A: Its TGI is greater than 100 µM.

Q: And the TGI (RPMI-8226 leukemia)?
A: The TGI was greater than 100 µM.

Q: And the TGI (RXF 393 renal)?
A: Its TGI is greater than 100 µM.

Q: And the TGI (RXF-631 renal)?
A: The TGI was greater than 100 µM.

Q: And the TGI (SF-268 CNS)?
A: Its TGI is greater than 100 µM.

Q: What about the TGI (SF-295 CNS) of the same molecule?
A: The TGI was greater than 100 µM.

Q: What about the TGI (SF-539 CNS) of the same molecule?
A: The TGI was greater than 100 µM.

Q: What about the TGI (SK-MEL-28 melanoma) of the same molecule?
A: Its TGI is greater than 100 µM.

Q: And the TGI (SK-OV-3 ovarian)?
A: Its TGI is greater than 100 µM.

Q: And the TGI (SN12C renal)?
A: Its TGI is greater than 100 µM.

Q: What about the TGI (SNB-19 CNS) of the same molecule?
A: The TGI was greater than 100 µM.

Q: What about the TGI (SNB-75 CNS) of the same molecule?
A: The TGI was greater than 100 µM.

Q: What about the TGI (SNB-78 CNS) of the same molecule?
A: Its TGI is greater than 100 µM.

Q: And the TGI (SR leukemia)?
A: The TGI was greater than 100 µM.

Q: And the TGI (SW-620 colon)?
A: Its TGI is greater than 100 µM.

Q: And the TGI (TK-10 renal)?
A: The TGI was greater than 100 µM.

Q: And the TGI (U251 CNS)?
A: The TGI was greater than 100 µM.

Q: And the TGI (UACC-257 melanoma)?
A: The TGI was greater than 100 µM.

Q: And the TGI (UO-31 renal)?
A: The TGI was greater than 100 µM.

Q: What about the TGI (XF 498 CNS) of the same molecule?
A: Its TGI is greater than 100 µM.
